According to patent publication US20060167056A1, “Polymorphs of {5-[3-(4,6-Difluoro-1H-benzoimidazol-2-yl)-1H-indazol-5-yl)-4-methyl-pyridin-3-ylmethyl}-ethyl-amine” (AGOURON PHARMACEUTICALS, INC., priority 2004, published 2006):
“Also recorded” adds a separate entry of the source.

Legend:
Type in all cases: physicochemical
[1] = DSC profiling, meta-stability of the polymorphic form; conditions: DSC thermogram
Description: Different polymorphic forms of Compound 1 were also distinguished using differential scanning calorimetry (DSC). DSC measures the difference in heat energy between a solid sample and an appropriate reference with an increase in temperature. DSC thermograms are characterized by endotherms (indicating energy uptake) and also by exotherms (indicating energy release), typically as the sample is heated. The DSC thermographs were obtained using a TA Instrument DSC Q-1000 instrument at a scan rate of 10° C./min over a temperature range of 25-300° C. Samples were weighed into aluminum crucibles that were sealed and punctured with a single hole. The extrapolated onset of melting temperature and, where applicable, the onset of dehydration/desolvation temperature, were also calculated. […] For any given example, the observed endotherms may also differ from instrument to instrument; however, it will generally be within the ranges defined herein provided the instruments are calibrated similarly.
(§1) Polymorph Form A is a meta-stable solvate form of Compound 1. Form A is chemically stable at 40° C. at 75% relative humidty for at least 6 weeks. […] The 6 week DSC thermogram, FIG. 2G, indicates an endotherm onset at 257° C. at a scan rate of 10° C./min.
FIG. 3A is an X-ray powder diffractogram of polymorph Form C of Compound 1. […]

[2] = Stability study at 40° C. at 75% relative humidity (X-ray powder diffraction and DSC, initial vs 6 weeks)
Description: (§2) The present invention provides several polymorphic crystalline forms of Compound 1. Each crystalline form of the compound can be characterized by one or more of the following: X-ray powder diffraction pattern (i.e., X-ray diffraction peaks at various diffraction angles (2θ)), melting point onset (and onset of dehydration for hydrated forms) as illustrated by endotherms of a differential scanning calorimetry (DSC) thermogram, Raman spectra, thermal gravimetric analysis (TGA), solid state ^13C and ^19F nuclear magnetic resonance (SSNMR) spectrum, aqueous solubility, light stability under International Conference on Harmonization (ICH) high intensity light conditions, and physical and chemical storage stability.
as §1
(§3) Polymorph Form B is physically and chemically stable at 40° C. at 75% relative humidity for at least six weeks.
FIG. 2A is an X-ray powder diffractogram of polymorph Form B of Compound 1. Form B was further characterized by Raman spectra, ^13C solid state NMR, ^19F solid state NMR, DSC profiling and TGA analysis.

[3] = Aqueous solubility
Description: as §2, §3

SMILES	stability class of the polymorphic form [1]	chemically stable, duration [2]	polymorph conversion, initial DSC thermogram vs 6 week DSC thermogram ([2]; 6 weeks, DSC scan rate 10° C./min)	physical stability, initial X-Ray powder diffraction data vs 6 week stability X-ray data ([2]; 6 weeks, XRPD)	solubility ([3]; aqueous, aqueous buffer, pH=4, read-out: initial aqueous solubility) [mg/mL]	behaviour of the aqueous solution after time ([3]; pH=4, after time)
CCNCc1cncc(-c2ccc3[nH]nc(-c4nc5c(F)cc(F)cc5[nH]4)c3c2)c1C [Form C, {5-[3-(4,6-Difluoro-1H-benzoimidazol-2-yl)-1H-indazol-5-yl]-4-methyl-pyridin-3-ylmethyl}-ethyl-amine]	meta-stable					
CCNCc1cncc(-c2ccc3[nH]nc(-c4nc5c(F)cc(F)cc5[nH]4)c3c2)c1C [Form A, {5-[3-(4,6-Difluoro-1H-benzoimidazol-2-yl)-1H-indazol-5-yl]-4-methyl-pyridin-3-ylmethyl}-ethyl-amine]	meta-stable	at least 6 weeks	small conversion of Form A to Form B; also recorded: a small amount of Form A had been converted to Form B	appears to be physically stable		
CCNCc1cncc(-c2ccc3[nH]nc(-c4nc5c(F)cc(F)cc5[nH]4)c3c2)c1C [Form B, {5-[3-(4,6-Difluoro-1H-benzoimidazol-2-yl)-1H-indazol-5-yl]-4-methyl-pyridin-3-ylmethyl}-ethyl-amine]		at least six			> 20	the solution has been seen to gel
